According to paper PMC8502442 (Pharmacology Research & Perspectives, 2021):
Like-named read-outs stand apart in the source and are kept apart here.

Assays:
[1] = male, Sprague-Dawley, rat, intravenous, n = 3, mean ± SD
[2] = rat, cited from earlier work
[3] = humans; cited from earlier work
[4] = system: parental MDCK cell; settings: parental MDCK cell assay; cited from earlier work
[5] = Rat pharmacokinetics following an IV single bolus; type: in vivo; settings: plasma, 1 mg/kg
[6] = rat microdialysis, brain versus blood; cited from earlier work
[7] = K puu liver, ratio of unbound liver concentration to unbound blood concentration at steady state
[8] = K puu muscle, ratio of unbound muscle concentration to unbound blood concentration at steady state

Cc1cc(=O)n(-c2ccccc2)n1C [Antipyrine]
Kp [1, 7]: 0.932 ± 0.178
Kp [1, 8]: 0.771 ± 0.215
reported plasma CL ([2]; ref 24, 25, 26, 27): 4.80 mL/min/kg

CC(C)NCC(O)COc1ccc(CC(N)=O)cc1 (stereo not shown) [Atenolol, atenolol]
share eliminated via the kidneys [3]: > 95%

NC(=O)N1c2ccccc2C=Cc2ccccc21 [Carbamazepine, carbamazepine]
Kp [1, 7]: 0.913 ± 0.169
Kp [1, 8]: 1.02 ± 0.27
reported plasma CL ([2]; ref 24, 25, 26, 27): 15.0 mL/min/kg
N-glucuronide as share of the administered dose ([2]; ref 34): 20%–30%
P app [4]: 27.5 ×10⁻⁶ cm/s

C[C@H]1O[C@@H](O[C@H]2[C@@H](O)C[C@H](O[C@H]3[C@@H](O)C[C@H](O[C@H]4CC[C@@]5(C)[C@H](CC[C@@H]6[C@@H]5C[C@@H](O)[C@]5(C)[C@@H](C7=CC(=O)OC7)CC[C@]65O)C4)O[C@@H]3C)O[C@@H]2C)C[C@H](O)[C@@H]1O [Digoxin, digoxin]
reported plasma CL ([2]; ref 20, 26, 36, 37): 17.3 mL/min/kg
reported plasma CL ([2]; ref 24, 25, 26, 27): 17.3 mL/min/kg
non-renal CL (biliary excretion + hepatic metabolism) as share of total CL ([2]; ref 26): 70%–80%
renal CL as share of total CL ([2]; ref 26): 20%–30%

COc1ccc([C@@H]2Sc3ccccc3N(CCN(C)C)C(=O)[C@@H]2OC(C)=O)cc1 [Diltiazem, diltiazem]
reported plasma CL ([2]; ref 18, 19, 20, 21, 22, 23): 90 mL/min/kg

NCC1(CC(=O)O)CCCCC1 [Gabapentin, gabapentin]
Kp [1, 7]: 2.23
Kp [1, 8]: 1.39 ± 0.51
Vd [5]: 0.451 ± 0.001 L/kg
clearance [5]: 1.53 ± 0.31 mL/min/kg
half-life [5]: 3.58 ± 0.87 h

CC12CC3CC(C)(C1)CC(N)(C3)C2 [Memantine, memantine]
Kp [1, 7]: 1.56
Kp [1, 8]: 2.13
reported plasma CL ([2]; ref 18, 19, 20, 21, 22, 23): 69 mL/min/kg
plasma CL ([2]; ref 47): about 45 ml/min/kg
renal CL ([2]; ref 47): about 13 ml/min/kg
Vd [5]: 7.36 ± 1.58 L/kg
clearance [5]: 60.5 ± 9.9 mL/min/kg
half-life [5]: 1.72 ± 0.03 h
reported K puu,brain [6]: 1.80

CC1COc2c(N3CCN(C)CC3)c(F)cc3c(=O)c(C(=O)O)cn1c23 (stereo not shown) [Ofloxacin, ofloxacin]
Kp [1, 7]: ~0.501
Kp [1, 8]: 0.641 ± 0.206
reported plasma CL ([2]; ref 20, 26, 36, 37): 27.5 mL/min/kg
non-renal CL (biliary excretion + metabolism) as share of total CL ([2]; ref 36): about 45%
renal CL ([2]; ref 36): about 15 ml/min/kg
renal CL as share of total CL ([2]; ref 36): 55%
total CL ([2]; ref 36): 27.5 mL/min/kg

CC(C)NCC(O)COc1cccc2ccccc12 (stereo not shown) [Propranolol, propranolol]
reported plasma CL ([2]; ref 18, 19, 20, 21, 22, 23): 70 to 90 mL/min/kg
P app [4]: 11 ×10⁻⁶ cm/s

COc1ccc(CN(CCN(C)C)c2ccccn2)cc1 [Pyrilamine, pyrilamine]
Vd [5]: 12.6 ± 1.6 L/kg
clearance [5]: 167 ± 24 mL/min/kg
half-life [5]: 2.16 ± 0.63 h
reported K puu,brain [6]: 2.50

C=C[C@H]1C[N@@]2CC[C@H]1C[C@@H]2[C@@H](O)c1ccnc2ccc(OC)cc12 [Quinidine, quinidine]
Kp [1, 7]: 0.677 ± 0.27
Kp [1, 8]: 1.75 ± 0.64
